These results are taken from ChEMBL document CHEMBL4354782, “Quinolone antibiotics” (Medchemcomm, 2019).

In one data set the test system is Enterococcus. The data set is described as follows: Antibacterial activity against Enterococcus by agar diffusion method. Format: functional. A general note: In agar diffusion tests the substance spreads into inoculated agar from a disc or well.
Data set [1] in a line: Half life in human at 0.4 g, po. The format is ADME. Particulars: in vivo.
For the next data set, the system named is Streptococcus pneumoniae. The data set can be described thus: Antibacterial activity against Streptococcus pneumoniae by agar diffusion method. Format: functional.
A further data set deals with Pseudomonas aeruginosa. The data set can be described thus: Antibacterial activity against Pseudomonas aeruginosa by agar diffusion method. The format is functional.
Data set [2] is described as follows: Protein binding in human at 0.4 g, po. The format is ADME. Particulars: in vivo; for fraction unbound: read-out: PB (converted).
The next data set has as its system Klebsiella. The data set is described as follows: Antibacterial activity against Klebsiella by agar diffusion method. Format: functional.
A short description of data set [3]: Cmax in human at 0.4 g, po. Format: ADME. Set-up: dose 0.4 g, route oral. Particulars: in vivo.
A further data set relates to Staphylococcus aureus. The data set can be described thus: Antibacterial activity against Staphylococcus aureus by agar diffusion method. Format: functional.
For another data set, the system named is Bacteroides fragilis. The data set can be described thus: Antibacterial activity against Bacteroides fragilis by agar diffusion method. Format: functional.
Another data set concerns Haemophilus influenzae. The data set can be described thus: Antibacterial activity against Haemophilus influenzae with horse blood by agar diffusion method. The format is functional.
The nature of data set [4]: AUC in human at 0.4 g, po. Format: ADME. Particulars: in vivo.
A further data set has as its system Escherichia coli. The data set can be described thus: Antibacterial activity against Escherichia coli by agar diffusion method. The format is functional.
The test system of a further data set is Streptococcus pyogenes. The data set is described as follows: Antibacterial activity against Streptococcus pyogenes by agar diffusion method. The format is functional.
In the next data set the test system is Clostridium perfringens. The data set is described as follows: microbe, parasite or virus in culture.
For the next data set, the species on record is Homo sapiens. The data set can be described thus: Phototoxicity in human. Particulars: in vivo. Format: organism-based.
Data set [5] can be described thus: AUC in human at 0.2 g, po bid. The format is ADME, organism-based. Particulars: in vivo.
The nature of data set [6]: Half life in human at 0.2 g, po bid. Particulars: in vivo. Format: ADME, organism-based.
Data set [7] is described as follows: Protein binding in human at 0.2 g, po bid. The format is ADME, organism-based. The settings on record: in vivo, read-out: PB (converted).
Data set [8] in a line: Cmax in human at 0.2 g, po bid. Format: ADME, organism-based. Set-up: dose 0.2 g, route oral. Particulars: in vivo.
A short description of data set [9]: Protein binding in human at 0.4 g, po bid. The format is ADME, organism-based. Particulars: in vivo, read-out: PB (converted).
Data set [10] in a line: AUC in human at 0.4 g, po bid. Format: ADME, organism-based. Particulars: in vivo.
A short description of data set [11]: Half life in human at 0.4 g, po bid. Format: ADME, organism-based. Particulars: in vivo.
Data set [12] in a line: Cmax in human at 0.4 g, po bid. The format is ADME, organism-based. The arrangement: dose 0.4 g, route oral. Particulars: in vivo.
Data set [13] in a line: Cmax in human at 0.3 g, po. Particulars: in vivo. The format is ADME. Set-up: dose 0.3 g, route oral.
Data set [14] is described as follows: AUC in human at 0.3 g, po. Format: ADME. Particulars: in vivo.
Data set [15] is described as follows: Toxicity in human assessed as hepatic eosinophilia effect.
Data set [16] can be described thus: Toxicity in human assessed as CNS effect by measuring dizziness.
Data set [17] in a line: Protein binding in human at 0.6 g, po. The format is ADME. Particulars: in vivo, read-out: PB (converted).
The nature of data set [18]: Cmax in human at 0.6 g, po. Format: ADME. Particulars: in vivo. Set-up: dose 0.6 g, route oral.
A short description of data set [19]: AUC in human at 0.6 g, po. Format: ADME. Particulars: in vivo.
Data set [20] can be described thus: Half life in human at 0.6 g, po. The format is ADME. Particulars: in vivo.
A short description of data set [21]: Cardiotoxicity in human QTc prolongation. The format is toxicity.
A short description of data set [22]: Toxicity in human assessed as arthralgia effect.
Data set [23] can be described thus: Toxicity in human assessed as gastrointestinal effect.

In brackets after ≈: the same amount, converted by molar mass. Some results are limits rather than exact numbers.

For `COc1c(N2CCNC(C)C2)c(F)cc2c(=O)c(C(=O)O)cn(C3CC3)c12` (stereo unspecified) [GATIFLOXACIN], the MIC90 against Enterococcus is 1 µg/mL (≈ 2.66 µM); against Streptococcus pneumoniae, 0.25 µg/mL (≈ 0.666 µM); with Pseudomonas aeruginosa it was 4 µg/mL (≈ 10.7 µM); in the data set on Klebsiella, 0.25 µg/mL (≈ 0.666 µM); against Staphylococcus aureus, 0.25 µg/mL (≈ 0.666 µM); in the data set with Bacteroides fragilis, 1 µg/mL (≈ 2.66 µM). The MIC90 against Haemophilus influenzae was 0.03 µg/mL (≈ 0.0799 µM); in the data set on Escherichia coli it was 0.06 µg/mL (≈ 0.16 µM); in the data set with Streptococcus pyogenes, 0.25 µg/mL (≈ 0.666 µM); with Clostridium perfringens it was 0.5 µg/mL (≈ 1.33 µM). Besides, the half-life – broadly, the time in which the quantity being followed falls by half – in data set [1] is 12 h. In addition, the fraction unbound in data set [2] was 0.8. Further, in data set [3], the concentration peaked (Cmax) at 3800 ng/mL. Moreover, the AUC (as a rule, the area under the concentration-time curve, a measure of exposure) in data set [4] worked out at 33000 ng·h/mL.

Compound `NC1CCN(c2c(F)cc3c(=O)c(C(=O)O)cn(C4CC4)c3c2Cl)C1` (stereo unspecified) [CLINAFLOXACIN] registered an Activity in the data set listed under Homo sapiens of over 10%. The MIC90 against Enterococcus came out at 0.25 µg/mL (≈ 0.683 µM); in the data set on Streptococcus pneumoniae, 0.12 µg/mL (≈ 0.328 µM); in the data set with Pseudomonas aeruginosa it was 0.5 µg/mL (≈ 1.37 µM); in the data set on Klebsiella it was 0.03 µg/mL (≈ 0.082 µM); in the data set with Staphylococcus aureus, 0.06 µg/mL (≈ 0.164 µM); with Bacteroides fragilis, 0.25 µg/mL (≈ 0.683 µM). Moreover, the MIC90 in the data set on Haemophilus influenzae was 0.01 µg/mL (≈ 0.0273 µM); in the data set with Escherichia coli, 0.01 µg/mL (≈ 0.0273 µM); against Streptococcus pyogenes it was 0.06 µg/mL (≈ 0.164 µM); in the data set with Clostridium perfringens it was 0.12 µg/mL (≈ 0.328 µM). Further, the AUC in data set [5] amounted to 18000 ng·h/mL. In data set [6], this compound showed a half-life of 6 h. Also, in data set [7], the fraction unbound is 0.6. For the same compound, in [8], the peak concentration (Cmax) (as a rule, the maximum level reached in the sampled fluid or tissue) worked out at 1600 ng/mL.

As for `CCn1cc(C(=O)O)c(=O)c2cc(F)c(N3CCNCC3)cc21` [NORFLOXACIN], the MIC90 is 4 µg/mL (≈ 12.5 µM) against Enterococcus; 16 µg/mL (≈ 50.1 µM) with Streptococcus pneumoniae; 2 µg/mL (≈ 6.26 µM) in the data set with Pseudomonas aeruginosa; 0.5 µg/mL (≈ 1.57 µM) against Klebsiella; 1 µg/mL (≈ 3.13 µM) against Staphylococcus aureus; over 64 µg/mL in the data set with Bacteroides fragilis. Moreover, the MIC90 in the data set on Haemophilus influenzae came out at 0.06 µg/mL (≈ 0.188 µM); in the data set on Escherichia coli, 0.12 µg/mL (≈ 0.376 µM); against Streptococcus pyogenes, 4 µg/mL (≈ 12.5 µM). Also, the fraction unbound in data set [9] was 0.85. The same compound yielded an AUC in data set [10] of 10000 ng·h/mL. Also, the half-life in data set [11] is 3 h. In addition, in data set [12], the Cmax was 1500 ng/mL.

As to `N[C@@H]1[C@H]2CN(c3nc4c(cc3F)c(=O)c(C(=O)O)cn4-c3ccc(F)cc3F)C[C@@H]12` [TROVAFLOXACIN], the MIC90 in the data set with Enterococcus came to 1 µg/mL (≈ 2.4 µM); with Streptococcus pneumoniae, 0.12 µg/mL (≈ 0.288 µM); in the data set on Pseudomonas aeruginosa it was 1 µg/mL (≈ 2.4 µM); against Staphylococcus aureus, 0.03 µg/mL (≈ 0.0721 µM); with Haemophilus influenzae, 0.01 µg/mL (≈ 0.024 µM); against Escherichia coli, 0.06 µg/mL (≈ 0.144 µM). Besides, the peak concentration (Cmax) in data set [13] worked out at 2500 ng/mL. This compound also came in with an AUC in data set [14] of 40000 ng·h/mL. Moreover, the Activity fell in the range of 12 to 16% in data set [15] and 2 to 11% in data set [16].

In the case of `CCn1cc(C(=O)O)c(=O)c2cc(F)c(N3CCNCC3)nc21` [ENOXACIN], the MIC90 against Enterococcus was 8 µg/mL (≈ 25 µM); in the data set on Streptococcus pneumoniae it was 64 µg/mL (≈ 200 µM); in the data set with Pseudomonas aeruginosa, over 64 µg/mL; in the data set with Klebsiella, 2 µg/mL (≈ 6.24 µM); against Staphylococcus aureus, 2 µg/mL (≈ 6.24 µM); in the data set on Bacteroides fragilis, over 64 µg/mL. Moreover, the MIC90 with Haemophilus influenzae was 0.12 µg/mL (≈ 0.375 µM); against Escherichia coli, 0.25 µg/mL (≈ 0.78 µM); against Streptococcus pyogenes, over 64 µg/mL; against Clostridium perfringens, over 64 µg/mL. The fraction unbound in data set [17] was 0.4. Also, the Cmax in data set [18] worked out at 3700 ng/mL. Moreover, in data set [19], the AUC was 29000 ng·h/mL. This compound also had a half-life in data set [20] of 2 h.

Take `Cc1c(F)c(N2CCNC(C)C2)cc2c1c(=O)c(C(=O)O)cn2C1CC1` (stereo unspecified) [GREPAFLOXACIN]: the MIC90 amounted to 4 µg/mL (≈ 11.1 µM) against Enterococcus; 0.25 µg/mL (≈ 0.696 µM) against Streptococcus pneumoniae; 8 µg/mL (≈ 22.3 µM) against Pseudomonas aeruginosa; 0.12 µg/mL (≈ 0.334 µM) with Klebsiella; 0.12 µg/mL (≈ 0.334 µM) against Staphylococcus aureus; 8 µg/mL (≈ 22.3 µM) with Bacteroides fragilis. Also, the MIC90 in the data set with Haemophilus influenzae amounted to 0.01 µg/mL (≈ 0.0278 µM); in the data set with Escherichia coli, 0.06 µg/mL (≈ 0.167 µM); in the data set on Streptococcus pyogenes it was 1 µg/mL (≈ 2.78 µM); with Clostridium perfringens, 1 µg/mL (≈ 2.78 µM). For the same compound, the half-life in [1] is 14 h. Also, the Activity is 2.9% in data set [21], 0.5 to 2% in data set [22], over 10% in data set [23] and 0.006% in data set [15]. Further, the protein-bound fraction in data set [2] (read-out: PB) was 0.5. For the same compound, the concentration in [3] peaked (Cmax) at 1400 ng/mL. Further, in data set [4], the AUC was 14000 ng·h/mL.

Consider `CCn1cc(C(=O)O)c(=O)c2cc(F)c(N3CCNC(C)C3)c(F)c21` (stereo unspecified) [LOMEFLOXACIN], for which the MIC90 against Enterococcus came out at 4 µg/mL (≈ 11.4 µM); with Streptococcus pneumoniae, 4 µg/mL (≈ 11.4 µM); against Pseudomonas aeruginosa it was 2 µg/mL (≈ 5.69 µM); in the data set on Klebsiella it was 0.25 µg/mL (≈ 0.712 µM); with Staphylococcus aureus, 2 µg/mL (≈ 5.69 µM); in the data set with Haemophilus influenzae it was 0.06 µg/mL (≈ 0.171 µM). Further, the MIC90 in the data set with Escherichia coli was determined as 0.06 µg/mL (≈ 0.171 µM); against Streptococcus pyogenes, 4 µg/mL (≈ 11.4 µM). In addition, the half-life in data set [1] is 8 h. Also, the fraction unbound in data set [2] is 0.9. In [3], this compound came in with a Cmax of 2800 ng/mL. This compound also gave an AUC in [4] of 26000 ng·h/mL.
